From patent US20100029600A1, “DIHYDRO-TRITERPENES IN THE TREATMENT OF VIRAL INFECTIONS, CARDIOVASCULAR DISEASE, INFLAMMATION, HYPERSENSITIVITY OR PAIN” (priority 2001, published 2010)

Key:
[1] = test system: TPA induced ear inflammation; assay: TPA (phorbolester) induced ear oedema test in the mouse, topical; assay type: in vivo; details: 0.02 mg per application topical; 3 h after TPA; p<0.05
[2] = test system: carrageenin-induced paw oedema; assay: Carrageenin-induced paw oedema test in the rat, oral; assay type: in vivo; details: 150 mg/kg oral, p<0.05
Description: Carrageenin, the phlogistic agent of choice for testing antiinflammatory drugs, is a mucopolysaccharide derived from Irish sea moss, Chondrus. Ibuprofen is used as a positive control.
The test article is the composition according to the invention described in example 1 further modified so that the dihydro-triterpenes are predominantly in the form of fatty acid esters (Compound 2). Ibuprofen is obtained from Astion A/S, Denmark. The test article is dissolved in peanut oil, which is used as vehicle.
The study is performed in male SPF Sprague Dawley rats of the stock Mol:SPRD from M & B A/S, Tornbjergvej 40, DK-4623 Lille Skensved. At start of the acclimatisation period the rats are in the weight range of 80-100 g.
The test articles or vehicle are administered orally by gavage in volumes of 20 ml per kg body weight, 0-5 minutes before injection of carrageenin into the foot.
Carrageenin (from Sigma) is prepared as a 1% suspension in sterile 0.9% NaCl-solution. A volume of 0.1 ml is injected through a 25-gauge needle into the plantar tissue of the right hind paw of the rats within 5 minutes after treatment with the test articles.
Immediately before the dosing and carrageenin injection and three and five hours later the foot volume is measured using a plethysmometer LE 7500 from Letica Scientific Instruments, Spain.

Structure (SMILES)	inhibition of ear swelling [1]	inhibition of paw oedema ([2]; after five hours)	inhibition of paw oedema ([2]; after three hours)
CCCC(=O)O[C@]1(C(=O)CO)CC[C@H]2[C@@H]3CCC4=CC(=O)CC[C@]4(C)[C@H]3[C@@H](O)C[C@@]21C [Hydrocortisone 17-butyrate, hydrocortisone 17-butyrate]	90%	–	–
CC(C)Cc1ccc(C(C)C(=O)O)cc1 (stereo not drawn) [ibuprofen, Ibuprofen]	–	88%	81%
